# Assay results reported in PubChem BioAssay AID720514 (Broad Institute, 2013).
# Test system: U2OS PGC1a acetylation, AlphaLISA, overnight
# Test: reduced cellular PGC1a acetyl-lysine signal – cell-based, cherry-picked samples, dose response (AID 720514);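 note: actives lower the acetylation signal so they count as inhibitors of PGC1a acetylation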
row,Structure (SMILES),AC50
1,C[C@H]1[C@@H](OS(=O)(=O)O)C[C@@H]2C[C@H]([C@@H](O)c3cc(=O)[nH]c(=O)[nH]3)NC3=NC[C@H]1N32,3.65 µM
2,C[C@H]1CN([C@@H](C)CO)C(=O)Cc2cc(NC(=O)Nc3ccccc3)ccc2O[C@@H]1CN(C)Cc1ccccc1,21.5 µM
